For 16 compounds, Ki results are on record in BindingDB's records for PubMed 9686407 (Sri International, 1998).

Non-standard residues stand in square brackets, D forms with d. Residues, ends and D or L forms follow the SMILES beside them. NMeF = CN[C@@H](Cc1ccccc1)C(=O)O

For experiment [1], the target named is Kappa-type opioid receptor (Cavia porcellus, UniProt P41144).
For a further experiment, the target named is Mu-type opioid receptor (Cavia porcellus, UniProt P97266).
The target of experiment [2] is 5-hydroxytryptamine receptor 5A (Rattus norvegicus, UniProt P35364).
Experiment [3] addresses T1, 5-hydroxytryptamine receptor 2C (Rattus norvegicus, UniProt P08909).
T1 sequence (P08909 whole entry): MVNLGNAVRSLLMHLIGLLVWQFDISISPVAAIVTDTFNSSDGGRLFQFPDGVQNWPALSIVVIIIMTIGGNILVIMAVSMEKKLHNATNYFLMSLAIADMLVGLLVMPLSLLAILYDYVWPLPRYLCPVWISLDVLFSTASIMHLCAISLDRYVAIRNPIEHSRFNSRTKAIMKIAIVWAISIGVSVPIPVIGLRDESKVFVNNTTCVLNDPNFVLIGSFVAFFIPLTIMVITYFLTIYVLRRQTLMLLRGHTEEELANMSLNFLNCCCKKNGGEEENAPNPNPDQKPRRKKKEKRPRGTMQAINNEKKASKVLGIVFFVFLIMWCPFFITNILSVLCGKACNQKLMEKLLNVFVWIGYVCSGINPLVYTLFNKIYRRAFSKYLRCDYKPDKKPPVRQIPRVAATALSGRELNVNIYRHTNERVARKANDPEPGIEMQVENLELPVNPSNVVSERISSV

Usually Ki stands for the dissociation constant of the complex between target and ligand, obtained from inhibition or displacement. The low end stands for higher affinity, the high end for lower affinity.

Sequence of Kappa-type opioid receptor (P41144 whole entry): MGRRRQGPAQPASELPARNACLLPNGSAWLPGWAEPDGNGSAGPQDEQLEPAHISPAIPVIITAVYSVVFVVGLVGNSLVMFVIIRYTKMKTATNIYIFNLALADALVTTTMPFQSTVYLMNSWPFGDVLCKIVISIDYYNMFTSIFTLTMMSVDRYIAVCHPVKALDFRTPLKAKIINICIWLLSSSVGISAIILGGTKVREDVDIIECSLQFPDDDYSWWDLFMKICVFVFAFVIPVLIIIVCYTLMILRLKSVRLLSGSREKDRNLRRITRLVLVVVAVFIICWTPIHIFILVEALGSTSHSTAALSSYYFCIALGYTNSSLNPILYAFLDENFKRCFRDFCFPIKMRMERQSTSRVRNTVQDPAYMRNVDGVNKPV
Sequence of Mu-type opioid receptor (P97266 whole entry): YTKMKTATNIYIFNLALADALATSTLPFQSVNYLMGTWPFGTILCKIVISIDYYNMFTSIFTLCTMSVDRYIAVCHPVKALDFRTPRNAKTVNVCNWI
Sequence of 5-hydroxytryptamine receptor 5A (P35364 whole entry): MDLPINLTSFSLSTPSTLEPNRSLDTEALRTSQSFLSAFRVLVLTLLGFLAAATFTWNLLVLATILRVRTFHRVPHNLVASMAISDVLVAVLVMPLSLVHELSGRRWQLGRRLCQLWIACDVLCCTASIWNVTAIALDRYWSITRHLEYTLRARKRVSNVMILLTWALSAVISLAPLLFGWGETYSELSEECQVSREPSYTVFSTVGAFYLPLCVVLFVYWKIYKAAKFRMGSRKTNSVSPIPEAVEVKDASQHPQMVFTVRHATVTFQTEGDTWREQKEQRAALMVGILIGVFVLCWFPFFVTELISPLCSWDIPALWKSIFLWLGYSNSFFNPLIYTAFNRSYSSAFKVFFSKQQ

For the compound `CN(C(=O)[C@@H]1CCCN1C(=O)[C@@H](N)Cc1ccc(O)cc1)[C@@H](Cc1ccccc1)C(=O)N1CCC[C@@H]1C(N)=O` (H-YP[NMeF][dP]-NH2), the inhibition constant Ki is > 10000 nM in experiment [1] and 8.1 nM on Mu-type opioid receptor.
On the same counts, the results for `CN1CC[C@]23CCCC[C@H]2[C@H]1Cc1ccc(O)cc13` [CAS_5985-38-6] are 3.4 nM and 0.3 nM.
On the same counts, the results for `Oc1ccc2c3c1O[C@H]1c4oc5ccccc5c4C[C@@]4(O)[C@@H](C2)N(CC2CC2)CC[C@]314` [CAS_111555-58-9] are 10.2 nM and 6.5 nM.
On the same counts, the results for `CN1CCC2(C)c3cc(O)ccc3CC1C2(C)CCC(=O)CCC1CCCC1` (configuration not stated) [CAS_115077] are 0.2 nM and 0.1 nM.
With `C[C@@H](O)[C@H](NC(=O)[C@H]1NC(=O)[C@H]([C@@H](C)O)NC(=O)[C@H](CCCN=C(N)N)NC(=O)[C@@H](Cc2c[nH]c3ccccc23)NC(=O)[C@H](Cc2ccc(O)cc2)NC(=O)[C@@H](NC(=O)[C@H](N)Cc2ccccc2)CSSC1(C)C)C(N)=O` [CTAP-NH2], the Ki in experiment [1] amounted to 1050 nM; at Mu-type opioid receptor, 0.5 nM.
Consider `CC(C)C[C@H](NC(=O)[C@H](Cc1ccccc1)NC(=O)CNC(=O)[C@@H](CO)NC(=O)[C@@H](N)Cc1ccc(O)cc1)C(=O)N[C@H](C(=O)O)[C@@H](C)O` [DSLET-OH], for which the Ki was > 10000 nM in experiment [1] and 20.6 nM at Mu-type opioid receptor.
On the same counts, the results for `C=CCN1CC[C@]23c4c5ccc(O)c4O[C@H]2[C@@H](O)C=CC3[C@H]1C5` (some centres not stated) [NALORPHINE - HCI] are 1.7 nM and 1.9 nM.
The corresponding values for `Oc1ccc2c3c1OC1c4[nH]c5ccccc5c4CC4(O)[C@H](C2)N(CC2CC2)CCC314` (some centres not stated) [NALTRINDOLE] are 7.8 nM and 0.2 nM.
Turning to `Oc1ccc2c3c1OC1C(O)C=CC4C(C2)NCCC341` (configuration not stated) [NORMORPHINE], the inhibitory constant (Ki) in experiment [1] is 64.5 nM; at Mu-type opioid receptor, 3.9 nM.
On the same counts, the results for `C=C1CCC2(O)C3Cc4ccc(O)c5c4C2(CCN3CC2CC2)C1O5` (configuration not stated) [NSC_119501] are 0.3 nM and 0.3 nM.
On the same counts, the results for `COc1ccc2c3c1OC1C(O)C=CC4C(C2)N(C)CCC341` (configuration not stated) [NSC_223652] are > 10000 nM and 152 nM.
As to `NCC(O)c1ccc(O)c(O)c1` (stereo not drawn) [Noradrenaline,(+)], the Ki in experiment [2] and in experiment [3] was > 10000 nM each time.
As to `CC(C)=CCN1CC[C@@]2(C)c3cc(O)ccc3C[C@@H]1[C@@H]2C` [Talwin], the values for the Ki (in experiment [1]; at Mu-type opioid receptor) were 4.4 nM and 5.7 nM, respectively.
Consider `CC(C)C[C@@H](NC(=O)[C@H](Cc1ccccc1)NC(=O)CNC(=O)[C@@H](C)NC(=O)[C@@H](N)Cc1ccc(O)cc1)C(=O)O` [[D-Ala2-D-Leu5]enkephalin], for which the Ki in experiment [1] is > 10000 nM; on Mu-type opioid receptor, 3.2 nM.
On the same counts, the results for `C[C@@H](NC(=O)[C@@H](N)Cc1ccc(O)cc1)C(=O)NCC(=O)N(C)[C@@H](Cc1ccccc1)C(=O)NCCO` [[tyrosyl-3,5-3H(N)]-D-Ala2-Mephe4-glyol5-enkephalin] are 1840 nM and 1.1 nM.
“H-YGGFMTSEKSQTPLVTLFKNAIVKNAHKKGQ-OH [Beta-Endorphin]”: the Ki was determined as 43.5 nM in experiment [1] and 2.3 nM at Mu-type opioid receptor.
